Test systems include UO-31 renal; MALME-3M melanoma; NCI-H226 lung; T-47D breast; U251 CNS; KM12 colon; OVCAR-3 ovarian; HOP-92 NSCLC; SN12C renal; MDA-MB-231 breast.
Holding throughout (assay): growth of human tumour cells (NCI), 48 h

From PubChem BioAssay (NCI) come the findings set out here.

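Five concentrations, 48 hours, 96-well plates. At the GI50, growth is halved. The concentration for full growth arrest is given as TGI.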

`C/C(=C\c1csc(C)n1)[C@@H]1C[C@@H]2O[C@]2(C)CCC[C@H](C)[C@H](O)[C@@H](C)C(=O)C(C)(C)[C@@H](O)CC(=O)N1`: the GI50 was 0.000126 µM in the assay with UO-31 renal; 0.000376 µM with MALME-3M melanoma; 0.000388 µM in the assay with NCI-H226 lung; 0.000189 µM in the assay with T-47D breast; 0.000147 µM in the assay on U251 CNS; 0.000141 µM in the assay with KM12 colon. The GI50 with OVCAR-3 ovarian was 0.000158 µM; in the assay with HOP-92 NSCLC, under 0.01 nM; in the assay on SN12C renal, 0.000214 µM; in the assay on MDA-MB-231 breast, 0.000312 µM. The TGI in the assay with UO-31 renal was 0.000177 µM; in the assay with MALME-3M melanoma, 0.000603 µM; in the assay with NCI-H226 lung it was 0.000652 µM; with T-47D breast, 0.000469 µM; in the assay on U251 CNS, 0.000391 µM; with KM12 colon, 0.000354 µM. For the same compound, the TGI in the assay with OVCAR-3 ovarian was 0.000377 µM; with HOP-92 NSCLC, under 1e-05 µM; in the assay with SN12C renal, 0.000418 µM; in the assay on MDA-MB-231 breast it was 0.000479 µM.
Consider `CC1(C)CC2=NO[Se]3=C2C(=NO3)C1`, for which the TGI was found to be 8.73 µM with UO-31 renal; 11.6 µM with NCI-H226 lung; 24.7 µM with T-47D breast; 18.7 µM in the assay on U251 CNS; 13.8 µM in the assay with KM12 colon; 5.37 µM with OVCAR-3 ovarian. The TGI in the assay on HOP-92 NSCLC came out at 8.21 µM; with SN12C renal, 13 µM; with MDA-MB-231 breast, 16.4 µM.
Turning to `CCN1CCN(CC(=O)Nc2nc3ccc(NCc4ccc(Br)cc4)cc3s2)CC1`, the GI50 is 1.78 µM in the assay on UO-31 renal; 1.66 µM in the assay with MALME-3M melanoma; 7.89 µM in the assay on NCI-H226 lung; 1.75 µM with T-47D breast; 1.92 µM with U251 CNS; 3.25 µM in the assay with KM12 colon. The figures for the GI50 in the assay on HOP-92 NSCLC, with SN12C renal and in the assay on MDA-MB-231 breast were 1210 nM, 2.73 µM and 1.89 µM, respectively. The TGI was 3.4 µM in the assay with UO-31 renal; 3.19 µM in the assay on MALME-3M melanoma; over 100 µM with NCI-H226 lung; 4.55 µM in the assay with T-47D breast; 3.79 µM in the assay on U251 CNS; over 100 µM in the assay on KM12 colon. Also, the figures for the TGI in the assay on HOP-92 NSCLC, in the assay on SN12C renal and in the assay on MDA-MB-231 breast were 3.04 µM, over 100 µM and 4.15 µM, respectively.
Turning to `OC[C@H]1C[C@](O)(c2ccc(F)cc2)[C@@H](c2ccc(F)cc2)O1`, the GI50 in the assay on UO-31 renal, in the assay on MALME-3M melanoma, with NCI-H226 lung, with U251 CNS, with KM12 colon and in the assay on OVCAR-3 ovarian was over 100 µM in each case. Moreover, the GI50 in the assay with HOP-92 NSCLC is 66000 nM; with SN12C renal, over 100 µM; with MDA-MB-231 breast it was over 100 µM. The TGI in the assay on UO-31 renal, with MALME-3M melanoma, in the assay with NCI-H226 lung, in the assay on U251 CNS, in the assay on KM12 colon and in the assay on OVCAR-3 ovarian was over 100 µM throughout. The TGI in the assay on HOP-92 NSCLC, in the assay on SN12C renal and in the assay with MDA-MB-231 breast was over 100 µM throughout.
Consider `CN(C)[C@@H]1C(=O)C(C(=O)NCc2nc3[nH]cnc(=S)c3[nH]2)=C(O)[C@@]2(O)C(=O)C3=C(O)c4c(O)cccc4[C@@](C)(O)[C@H]3C[C@@H]12`, for which the GI50 is 3.69 µM with UO-31 renal; over 100 µM in the assay with MALME-3M melanoma; 1.95 µM in the assay with T-47D breast; over 100 µM in the assay with U251 CNS; 5.01 µM with KM12 colon; 2.52 µM in the assay on OVCAR-3 ovarian. The GI50 in the assay with SN12C renal was 59.9 µM. Further, the TGI with UO-31 renal, in the assay with MALME-3M melanoma, in the assay on T-47D breast, in the assay on U251 CNS, in the assay with KM12 colon and with OVCAR-3 ovarian was over 100 µM in each case. For the same compound, in the assay with SN12C renal, the TGI is over 100 µM.
Regarding `O=C(O)c1cn(C2CC2)c2cc(N3CCN(C(=O)N(c4ccccc4)c4nc(-c5ccccc5)cs4)CC3)c(F)cc2c1=O`, the GI50 is 2.3 µM in the assay on T-47D breast; 0.381 µM in the assay on U251 CNS; 0.369 µM with KM12 colon; 241 nM in the assay on HOP-92 NSCLC; 0.308 µM with SN12C renal. Also, the TGI is over 100 µM in the assay on T-47D breast; over 100 µM in the assay with U251 CNS; over 100 µM with KM12 colon; 0.948 µM with HOP-92 NSCLC; over 100 µM in the assay on SN12C renal.
For `O=[N+]([O-])c1ccc(/C=C(/c2ccc([N+](=O)[O-])o2)S(=O)(=O)c2ccccc2)cc1`, the TGI in the assay on UO-31 renal was over 100 µM; in the assay on MALME-3M melanoma, 87.5 µM; in the assay with NCI-H226 lung it was 75 µM; in the assay with T-47D breast it was over 100 µM; in the assay with U251 CNS it was over 100 µM; with KM12 colon, over 100 µM. Also, the figures for the TGI in the assay with OVCAR-3 ovarian, in the assay with HOP-92 NSCLC and with MDA-MB-231 breast were over 100 µM, over 100 µM and 88.2 µM, respectively.
For the compound `O=C1c2ccccc2N1C(=O)c1ccccc1[N+](=O)[O-]`, the TGI in the assay on UO-31 renal, in the assay with MALME-3M melanoma, with NCI-H226 lung, with T-47D breast, in the assay on U251 CNS and in the assay with KM12 colon was over 100 µM in each case. For the same compound, the TGI is 88.4 µM in the assay with OVCAR-3 ovarian and over 100 µM with HOP-92 NSCLC.
Regarding `O=C(NO)c1ccc(CNc2cccc3nc(C4CC4)n(-c4ccccc4)c(=O)c23)cc1`, the GI50 with UO-31 renal was 1.45 µM; in the assay with MALME-3M melanoma it was 2.05 µM; in the assay with NCI-H226 lung it was 2.93 µM; in the assay on T-47D breast it was 2.08 µM; with U251 CNS it was 1.63 µM; with OVCAR-3 ovarian, 1.92 µM. The GI50 with HOP-92 NSCLC is 1990 nM; in the assay with SN12C renal, 2.4 µM; in the assay on MDA-MB-231 breast, 2.31 µM. For the same compound, the TGI with UO-31 renal was 2.96 µM; in the assay with MALME-3M melanoma, 7.61 µM; in the assay with NCI-H226 lung, 15 µM; in the assay on T-47D breast it was 7.34 µM; in the assay with U251 CNS, 3.23 µM; in the assay with OVCAR-3 ovarian, 5.51 µM. The TGI turned out to be 6.82 µM in the assay on HOP-92 NSCLC, 10.9 µM in the assay with SN12C renal and 7.33 µM with MDA-MB-231 breast.
In the case of `O=C1Nc2ccc(Cl)cc2/C1=N/c1nc(-c2ccc(Cl)cc2)cs1`, the GI50 with T-47D breast is 0.938 µM; in the assay with U251 CNS, 1.7 µM; in the assay on KM12 colon, 1.37 µM; with OVCAR-3 ovarian it was 1.3 µM. In addition, the TGI in the assay on T-47D breast is 5.8 µM; with U251 CNS it was 4.65 µM; in the assay on KM12 colon, 4.55 µM; in the assay with OVCAR-3 ovarian, 4.56 µM.
For the compound `c1cc(OCCCCCOc2cccc(-c3nc4ccccc4[nH]3)c2)cc(-c2nc3ccccc3[nH]2)c1`, the GI50 in the assay on MALME-3M melanoma was 1.87 µM; in the assay with NCI-H226 lung it was 1.92 µM; with T-47D breast, 0.458 µM; with U251 CNS, 3.07 µM; with KM12 colon, 2.69 µM; in the assay with OVCAR-3 ovarian, 1.53 µM. Further, the GI50 with HOP-92 NSCLC is 1090 nM; with SN12C renal it was 4.61 µM; in the assay on MDA-MB-231 breast, 4.08 µM. For the same compound, the TGI in the assay on MALME-3M melanoma was 5.02 µM; in the assay with NCI-H226 lung it was over 100 µM; with T-47D breast, 3.18 µM; with U251 CNS, over 100 µM; in the assay with KM12 colon, over 100 µM; in the assay with OVCAR-3 ovarian it was over 100 µM. Moreover, the TGI in the assay with HOP-92 NSCLC is 4.68 µM; with SN12C renal, over 100 µM; with MDA-MB-231 breast, 30.9 µM.
Take `COc1ccc(-n2c(=O)c3ccccc3n(Cc3ccc(C(=O)NO)cc3)c2=O)cc1`: the GI50 in the assay with UO-31 renal is 6.58 µM; in the assay on MALME-3M melanoma, 1.58 µM; with NCI-H226 lung, 1.56 µM; in the assay with T-47D breast it was 1.9 µM; with U251 CNS, 1.78 µM; in the assay with KM12 colon, 1.77 µM. Moreover, the GI50 in the assay on OVCAR-3 ovarian is 2.07 µM; in the assay with HOP-92 NSCLC, 2100 nM; with MDA-MB-231 breast it was 3.06 µM. Moreover, the TGI in the assay on UO-31 renal stood at 21.5 µM; with MALME-3M melanoma, 5.92 µM; with NCI-H226 lung it was 3.75 µM; in the assay with T-47D breast, 6.63 µM; with U251 CNS, 3.58 µM; with KM12 colon, 4.08 µM. Besides, the TGI in the assay with OVCAR-3 ovarian turned out to be 5.95 µM; in the assay with HOP-92 NSCLC, 5.33 µM; in the assay on MDA-MB-231 breast, 8.63 µM.
In the case of `COc1ccc([C@@H]2[C@@H](Oc3ccccc3)C(=O)N2c2cc(OC)c(OC)c(OC)c2)cc1F`, the GI50 in the assay with UO-31 renal is 0.562 µM; in the assay on MALME-3M melanoma it was over 100 µM; with NCI-H226 lung, 0.99 µM; in the assay on U251 CNS, 0.185 µM; in the assay on KM12 colon, 0.088 µM; in the assay with OVCAR-3 ovarian it was 0.0511 µM. In addition, the results for the GI50 in the assay with HOP-92 NSCLC, in the assay with SN12C renal and in the assay with MDA-MB-231 breast were 722 nM, 0.383 µM and 0.298 µM, respectively. The TGI with UO-31 renal, in the assay with MALME-3M melanoma, with NCI-H226 lung, in the assay with U251 CNS, in the assay with KM12 colon and in the assay with OVCAR-3 ovarian was over 100 µM throughout. For the same compound, the TGI with HOP-92 NSCLC, in the assay on SN12C renal and with MDA-MB-231 breast was over 100 µM throughout.
`COc1cc2c(Oc3ccc(-c4cnc(Nc5ccc(F)cc5)n(C)c4=O)cc3F)ccnc2cc1OCCCN1CCOCC1`: the GI50 with UO-31 renal was 0.906 µM; in the assay with MALME-3M melanoma, 0.291 µM; with NCI-H226 lung it was 1.16 µM; in the assay with U251 CNS it was 1.66 µM; in the assay with OVCAR-3 ovarian it was 1.64 µM; in the assay on HOP-92 NSCLC it was 83 nM. In addition, the GI50 in the assay with SN12C renal was 0.528 µM; in the assay with MDA-MB-231 breast it was 1.4 µM. Moreover, the TGI with UO-31 renal was 2.21 µM; in the assay with MALME-3M melanoma, 1.41 µM; in the assay with NCI-H226 lung, 8.15 µM; in the assay with U251 CNS it was 3.2 µM; in the assay with OVCAR-3 ovarian, 3.15 µM; in the assay on HOP-92 NSCLC, 1.01 µM. For the same compound, the TGI in the assay with SN12C renal was 2.27 µM; in the assay on MDA-MB-231 breast, 2.93 µM.
